According to PubChem BioAssay (NCI):
“And” between values parts separate entries of the source, which are not always exact repeats. Equal values may be shown once.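 A five-concentration, 48-hour dose response in 96-well plates underlies each endpoint, interpolated linearly between surrounding concentrations. GI50 = concentration required for 50% inhibition of growth. TGI marks complete inhibition of growth.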

Tests used:
Experiment in all cases: NCI tumour cell line growth inhibition, 48 h
[1] = test system: SK-MEL-28 melanoma
[2] = test system: K-562 leukemia
[3] = test system: UACC-62 melanoma
[4] = test system: ACHN renal
[5] = test system: MALME-3M melanoma
[6] = test system: SW-620 colon
[7] = test system: HCT-116 colon
[8] = test system: COLO 205 colon
[9] = test system: BT-549 breast
[10] = test system: MCF7 breast

CCOc1ccc(OCC)c([P+](c2ccccc2)(c2ccccc2)c2ccccc2)c1
TGI [1]: 16.8 µM | TGI [2]: 17 µM | TGI [3]: 14.8 µM | TGI [4]: 10.5 µM | TGI [5]: 23.3 µM | TGI [6]: 13.1 µM | TGI [7]: 11.8 µM | TGI [8]: 1.31 µM

CN(C)C(=O)NC(=S)N(C)C
TGI [1]: > 100 µM | TGI [2]: > 100 µM | TGI [3]: > 100 µM | TGI [4]: > 100 µM | TGI [5]: > 100 µM | TGI [6]: > 100 µM | TGI [7]: > 100 µM

CC(=O)OC(C)(C)/C=C/C(=O)[C@](C)(O)[C@H]1[C@H](O)C[C@@]2(C)[C@@H]3CC=C4[C@@H](C=C(O)C(=O)C4(C)C)[C@]3(C)C(=O)C[C@]12C
TGI [9]: 0.0846 µM | TGI [2]: 4.97 µM and 9.17 µM and 14 µM | TGI [3]: 1.56 µM and 0.806 µM and 1.17 µM | GI50 [4]: 0.0306 µM | TGI [4]: 0.25 µM and 0.0794 µM | TGI [6]: 7.04 µM and 1.26 µM and 3.48 µM | TGI [10]: 3.6 µM and 1.77 µM and 1.86 µM | TGI [7]: 1.39 µM [middle of 4 runs]

CC1=C(C(=O)NCc2ccccc2)C(c2ccccc2C)C(C(=O)NCc2ccccc2)=C(C)N1
TGI [1]: > 67.3 µM | TGI [2]: > 100 µM | TGI [3]: 38.8 µM | TGI [4]: 38.4 µM | TGI [5]: > 100 µM | TGI [6]: > 100 µM | TGI [7]: 37.6 µM | TGI [8]: > 100 µM

C/C(=N\n1c(O)c(C#N)cc(C#N)c1=O)c1ccncc1
GI50 [1]: > 100 µM | TGI [1]: > 100 µM | GI50 [2]: > 100 µM | TGI [2]: > 100 µM | GI50 [3]: > 100 µM | TGI [3]: > 100 µM | GI50 [4]: > 100 µM | TGI [4]: > 100 µM | GI50 [5]: > 100 µM | TGI [5]: > 100 µM | GI50 [6]: > 100 µM | TGI [6]: > 100 µM | GI50 [10]: > 100 µM | TGI [10]: > 100 µM | GI50 [7]: > 100 µM | TGI [7]: > 100 µM | GI50 [8]: > 100 µM | TGI [8]: > 100 µM

COc1cccc2nc3ccccc3nc12
TGI [1]: > 100 µM | TGI [2]: > 100 µM | TGI [3]: > 100 µM | TGI [4]: 63.4 µM | TGI [5]: > 100 µM | TGI [6]: > 100 µM | TGI [10]: > 100 µM | TGI [7]: > 100 µM | TGI [8]: > 100 µM

O=C(Nc1ccccc1C(F)(F)F)c1ccc(NC2=C(Cl)C(=O)N(Cc3ccccc3)C2=O)cc1
GI50 [1]: > 100 µM | TGI [1]: > 100 µM | GI50 [9]: 24 µM | TGI [9]: 58.3 µM | GI50 [2]: 5.65 µM | TGI [2]: 80.5 µM | GI50 [3]: 18.1 µM | TGI [3]: 59.2 µM | GI50 [4]: 33.7 µM | TGI [4]: > 100 µM | GI50 [6]: > 100 µM | TGI [6]: > 100 µM | GI50 [10]: 7.33 µM | TGI [10]: > 100 µM | GI50 [7]: 29.4 µM | TGI [7]: > 100 µM | GI50 [8]: 98.1 µM | TGI [8]: > 100 µM

C[C@H](CS)C(=O)N1c2ccccc2C[C@H]1C(=O)O
TGI [1]: > 100 µM | TGI [9]: > 100 µM | TGI [2]: > 100 µM | TGI [3]: > 100 µM | TGI [4]: > 100 µM | TGI [6]: > 100 µM | TGI [10]: > 100 µM | TGI [7]: > 100 µM | TGI [8]: > 100 µM

N#Cc1ccccc1C#C/C=C\C#CC#C/C=C\C#Cc1ccccc1C#N
GI50 [1]: 10.6 µM | TGI [1]: 49.6 µM | GI50 [9]: 20.9 µM | TGI [9]: > 100 µM | GI50 [3]: 14.7 µM | TGI [3]: 40.6 µM | GI50 [4]: 7.39 µM | TGI [4]: 37.8 µM | GI50 [5]: 14.6 µM | TGI [5]: 29.8 µM | GI50 [6]: 9.1 µM | TGI [6]: > 100 µM | GI50 [10]: 47.4 µM | TGI [10]: > 100 µM | GI50 [7]: 13.6 µM | TGI [7]: 30.2 µM | GI50 [8]: 7.33 µM | TGI [8]: 21.1 µM
